This note sets out measurements from US9738652B2, “Spiro urea compounds as RSV antiviral compounds” (priority 2014, dated 2017).

One data set has as its system rgRSV224 virus. Briefly: Antiviral activity: rgRSV224 (GFP) replication in HeLa cells. The conditions noted are these: human respiratory syncytial virus, 72 h, read-out: RSV HELA pEC50 (converted).
Data set [1] in a line: Cytotoxicity in HeLa cells (ATPlite, CC50) used for selectivity index. The conditions noted are these: human.
Protocol: The wells contain 0.05% DMSO per volume. Cells were incubated at 37° C. in a 5% CO2 atmosphere. […] In parallel, compounds were incubated for three days in a set of white 384-well microtiter plates (Corning) and the cytotoxicity of compounds in HeLa cells was determined by measuring the ATP content of the cells using the ATPlite kit (Perkin Elmer, Zaventem, Belgium) according to the manufacturer's instructions. The CC50 was defined as the 50% concentration for cytotoxicity.

Protocol for rgRSV224 virus: Black 384-well clear-bottom microtiter plates (Corning, Amsterdam, The Netherlands) were filled via acoustic drop ejection using the echo liquid handler (Labcyte, Sunnyvale, Calif.). 200 nL of compound stock solutions (100% DMSO) were transferred to the assay plates. 9 serial 4-fold dilutions of compound were made, creating per quadrant the same compound concentration. The assay was initiated by adding 10 μL of culture medium to each well (RPMI medium without phenol red, 10% FBS-heat inactivated, 0.04% gentamycin (50 mg/mL). All addition steps are done by using a multidrop dispenser (Thermo Scientific, Erembodegem, Belgium). Next, rgRSV224 virus (MOI=1) diluted in culture medium was added to the plates. rgRSV224 virus is an engineered virus that includes an additional GFP gene (Hallak L K, Spillmann D, Collins P L, Peeples M E. Glycosaminoglycan sulfation requirements for respiratory syncytial virus infection; Journal of virology (2000), 74(22), 10508-13) and was in-licensed from the NIH (Bethesda, Md., USA). Finally, 20 μL of a HeLa cell suspension (3,000 cells/well) were plated. Medium, virus- and mock-infected controls were included in each test. The wells contain 0.05% DMSO per volume. Cells were incubated at 37° C. in a 5% CO2 atmosphere. Three days post-virus exposure, viral replication was quantified by measuring GFP expression in the cells by an in house developed MSM laser microscope (Tibotec, Beerse, Belgium). The EC50 was defined as the 50% inhibitory concentration for GFP expression. In parallel, compounds were incubated for three days in a set of white 384-well microtiter plates (Corning) and the cytotoxicity of compounds in HeLa cells was determined by measuring the ATP content of the cells using the ATPlite kit (Perkin Elmer, Zaventem, Belgium) according to the manufacturer's instructions. The CC50 was defined as the 50% concentration for cytotoxicity.

Turning to `CN(C)CCNC(=O)N1CC2(C1)C(=O)N(Cc1cc3cc(Cl)ccc3n1CCCS(C)(=O)=O)c1ccccc12` [Co. No. 17, 1′-[[5-chloro-1-(3-methylsulfonylpropyl)indol-2-yl]methyl]-N-[2-(dimethylamino)ethyl]-2′-oxo-spiro[azetidine-3,3′-indoline]-1-carboxamide], in the data set with rgRSV224 virus, the EC50 is 1260 pM. Besides, the selectivity ratio at 3 days in data set [1] came out at 39300.
Taken in the same sequence, the figures for `N#CCCCn1c(CN2C(=O)C3(CN(C(=O)NC4CC(O)C4)C3)c3ccccc32)cc2cc(Cl)ccc21` (stereo not drawn) [Co. No. 7, 1′-[[5-chloro-1-(3-cyanopropyl)indol-2-yl]methyl]-N-(3-hydroxycyclobutyl)-2′-oxo-spiro[azetidine-3,3′-indoline]-1-carboxamide] were 407 pM and 103000.
Taken in the same sequence, the figures for `N#CCCCn1c(CN2C(=O)C3(CN(C(=O)N[C@H]4C[C@H](O)C4)C3)c3ccccc32)cc2cc(Cl)ccc21` [Co. No. 9, 1′-[[5-chloro-1-(3-cyanopropyl)indol-2-yl]methyl]-N-(trans-3-hydroxycyclobutyl)-2′-oxo-spiro[azetidine-3,3′-indoline]-1-carboxamide] were below 153 pM and above 254000.
Taken in the same sequence, the figures for `CC(C)NC(=O)N1CC2(C1)C(=O)N(Cc1nc3cc(Cl)ccc3n1CCCS(C)(=O)=O)c1ccccc12` [Co. No. 18, 1′-[[5-chloro-1-(3-methylsulfonylpropyl)benzimidazol-2-yl]methyl]-N-isopropyl-2′-oxo-spiro[azetidine-3,3′-indoline]-1-carboxamide] were 20.4 pM and above 4.93e+06.
Consider `O=C(NC1CCOCC1)N1CC2(C1)C(=O)N(Cc1nc3nc(Cl)ccc3n1CCCC(F)(F)F)c1ccccc12` [Co. No. 23, 1′-[[5-chloro-1-(4,4,4-trifluorobutyl)imidazo[4,5-b]pyridin-2-yl]methyl]-2′-oxo-N-tetrahydropyran-4-yl-spiro[azetidine-3,3′-indoline]-1-carboxamide], for which the EC50 in the data set on rgRSV224 virus is 1620 pM. Also, the selectivity ratio at 3 days in data set [1] was above 61800.
Taken in the same sequence, the figures for `CS(=O)(=O)CCCn1c(CN2C(=O)C3(CN(C(=O)NCC(F)(F)F)C3)c3ccccc32)cc2cc(Cl)ccc21` [Co. No. 12, 1′-[[5-chloro-1-(3-methylsulfonylpropyl)indol-2-yl]methyl]-2′-oxo-N-(2,2,2-trifluoroethyl)spiro[azetidine-3,3′-indoline]-1-carboxamide] were 269 pM and 86900.
With `CC(C)NC(=O)N1CCC2(CC1)C(=O)N(Cc1nc3cc(Cl)ccc3n1CCCC#N)c1cnccc12` [Co. No. 29, 1′-[[5-chloro-1-(3-cyanopropyl)benzimidazol-2-yl]methyl]-N-isopropyl-2′-oxo-spiro[piperidine-4,3′-pyrrolo[2,3-c]pyridine]-1-carboxamide], the EC50 in the data set on rgRSV224 virus was 24.5 pM. The selectivity ratio at 3 days in data set [1] is above 4.11e+06.
Taken in the same sequence, the figures for `CS(=O)(=O)CCCn1c(CN2C(=O)C3(CN(C(=O)NCCN4CCOCC4)C3)c3ccccc32)cc2cc(Cl)ccc21` [Co. No. 16, 1′-[[5-chloro-1-(3-methylsulfonylpropyl)indol-2-yl]methyl]-N-(2-morpholinoethyl)-2′-oxo-spiro[azetidine-3,3′-indoline]-1-carboxamide] were 339 pM and 159000.
Take `CN1CCC(NC(=O)N2CC3(C2)C(=O)N(Cc2cc4cc(Cl)ccc4n2CCCC#N)c2ccccc23)CC1` [Co. No. 5, 1′-[[5-chloro-1-(3-cyanopropyl)indol-2-yl]methyl]-N-(1-methyl-4-piperidyl)-2′-oxo-spiro[azetidine-3,3′-indoline]-1-carboxamide]: the EC50 in the data set on rgRSV224 virus was 3160 pM. Besides, the selectivity ratio at 3 days in data set [1] worked out at 10000.
Taken in the same sequence, the figures for `N#CCCCn1c(CN2C(=O)C3(CN(C(=O)NC4CCN(CC(F)(F)F)CC4)C3)c3ccccc32)cc2cc(Cl)ccc21` [Co. No. 4, 1′-[[5-chloro-1-(3-cyanopropyl)indol-2-yl]methyl]-2′-oxo-N-[1-(2,2,2-trifluoroethyl)-4-piperidyl]spiro[azetidine-3,3′-indoline]-1-carboxamide] were 1000 pM and 100000.
Consider `N#CCCCn1c(CN2C(=O)C3(CN(C(=O)NC4CCOCC4)C3)c3ccccc32)cc2cc(Cl)ccc21` [Co. No. 6, 1′-[[5-chloro-1-(3-cyanopropyl)indol-2-yl]methyl]-2′-oxo-N-tetrahydropyran-4-yl-spiro[azetidine-3,3′-indoline]-1-carboxamide], for which, in the data set with rgRSV224 virus, the EC50 is 316 pM. Also, in data set [1], the selectivity ratio at 3 days was 100000.
Taken in the same sequence, the figures for `CC(C)NC(=O)N1CCC2(CC1)C(=O)N(Cc1cc3cc(Cl)ccc3n1CCCS(C)(=O)=O)c1cnccc12` [Co. No. 27, 1′-[[5-chloro-1-(3-methylsulfonylpropyl)indol-2-yl]methyl]-N-isopropyl-2′-oxo-spiro[piperidine-4,3′-pyrrolo[2,3-c]pyridine]-1-carboxamide] were 257 pM and 300000.
For `CS(=O)(=O)CCCn1c(CN2C(=O)C3(CN(C(=O)N[C@H]4C[C@H](O)C4)C3)c3ccccc32)cc2cc(Cl)ccc21` [Co. No. 11, 1′-[[5-chloro-1-(3-methylsulfonylpropyl)indol-2-yl]methyl]-N-(trans-3-hydroxycyclobutyl)-2′-oxo-spiro[azetidine-3,3′-indoline]-1-carboxamide], in that order: 245 pM and 300000.
On to `N#CCCCn1c(CN2C(=O)C3(CN(C(=O)N[C@H]4C[C@@H](O)C4)C3)c3ccccc32)cc2cc(Cl)ccc21` [Co. No. 8, 1′-[[5-chloro-1-(3-cyanopropyl)indol-2-yl]methyl]-N-(cis-3-hydroxycyclobutyl)-2′-oxo-spiro[azetidine-3,3′-indoline]-1-carboxamide], for which, in the data set on rgRSV224 virus, the EC50 was below 153 pM. For the same compound, the selectivity ratio at 3 days in data set [1] is above 232000.
Taken in the same sequence, the figures for `N#CCCCn1c(CN2C(=O)C3(CN(C(=O)NC4CCNCC4)C3)c3ccccc32)cc2cc(Cl)ccc21` [Co. No. 3, 1′-[[5-chloro-1-(3-cyanopropyl)indol-2-yl]methyl]-2′-oxo-N-(4-piperidyl)spiro[azetidine-3,3′-indoline]-1-carboxamide] were 631 pM and 158000.
As for `CC(C)NC(=O)N1CC2(C1)C(=O)N(Cc1cc3cc(Cl)ccc3n1CCCS(C)(=O)=O)c1ccccc12` [Co. No. 1, 1′-[[5-chloro-1-(3-methylsulfonylpropyl)indol-2-yl]methyl]-N-isopropyl-2′-oxo-spiro[azetidine-3,3′-indoline]-1-carboxamide], the EC50 in the data set on rgRSV224 virus is 89.1 pM. For the same compound, in data set [1], the selectivity ratio at 3 days was 357000.
For `CC(C)NC(=O)N1CCC2(CC1)C(=O)N(Cc1cc3cc(Cl)ccc3n1CCCC#N)c1cnccc12` [Co. No. 28, 1′-[[5-chloro-1-(3-cyanopropyl)indol-2-yl]methyl]-N-isopropyl-2′-oxo-spiro[piperidine-4,3′-pyrrolo[2,3-c]pyridine]-1-carboxamide], in that order: 2140 pM and 25400.
As to `O=C(NC1CC(O)C1)N1CC2(C1)C(=O)N(Cc1nc3nc(Cl)ccc3n1CCCCF)c1ccccc12` (stereo not drawn) [Co. No. 21, 1′-[[5-chloro-1-(4-fluorobutyl)imidazo[4,5-b]pyridin-2-yl]methyl]-N-(3-hydroxycyclobutyl)-2′-oxo-spiro[azetidine-3,3′-indoline]-1-carboxamide], in the data set with rgRSV224 virus, the EC50 is 1410 pM. Besides, the selectivity ratio at 3 days in data set [1] was above 71400.
Consider `CC(C)(C)OC(=O)N1CCC(NC(=O)N2CC3(C2)C(=O)N(Cc2cc4cc(Cl)ccc4n2CCCC#N)c2ccccc23)CC1` [Co. No. 2, tert-butyl 4-[[1′-[[5-chloro-1-(3-cyanopropyl)indol-2-yl]methyl]-2′-oxo-spiro[azetidine-3,3′-indoline]-1-carbonyl]amino]piperidine-1-carboxylate], for which the EC50 with rgRSV224 virus was 2000 pM. For the same compound, in data set [1], the selectivity ratio at 3 days was above 50000.
For `CC(C)NC(=O)N1CC2(C1)C(=O)N(Cc1nc3cc(Cl)ccc3n1CCCC#N)c1ccccc12` [Co. No. 19, 1′-[[5-chloro-1-(3-cyanopropyl)benzimidazol-2-yl]methyl]-N-isopropyl-2′-oxo-spiro[azetidine-3,3′-indoline]-1-carboxamide], in that order: 91.2 pM and above 1.11e+06.
Taken in the same sequence, the figures for `CC(C)(CO)NC(=O)N1CC2(C1)C(=O)N(Cc1cc3cc(Cl)ccc3n1CCCS(C)(=O)=O)c1ccccc12` [Co. No. 13, 1′-[[5-chloro-1-(3-methylsulfonylpropyl)indol-2-yl]methyl]-N-(2-hydroxy-1,1-dimethyl-ethyl)-2′-oxo-spiro[azetidine-3,3′-indoline]-1-carboxamide] were 1000 pM and 43400.
For `CC(C)NC(=O)N1CC2(C1)C(=O)N(Cc1nc3nc(Cl)ccc3n1CCCCF)c1ccccc12` [Co. No. 20, 1′-[[5-chloro-1-(4-fluorobutyl)imidazo[4,5-b]pyridin-2-yl]methyl]-N-isopropyl-2′-oxo-spiro[azetidine-3,3′-indoline]-1-carboxamide], in that order: 1260 pM and above 80200.
For the compound `CNC(=O)N1CCC2(CC1)C(=O)N(Cc1cc3cc(Cl)ccc3n1CCCC#N)c1cnccc12` [Co. No. 25, 1′-[[5-chloro-1-(3-cyanopropyl)indol-2-yl]methyl]-N-methyl-2′-oxo-spiro[piperidine-4,3′-pyrrolo[2,3-c]pyridine]-1-carboxamide], the EC50 with rgRSV224 virus is 178 pM. Moreover, the selectivity ratio at 3 days in data set [1] was above 565000.
For `CC(CO)NC(=O)N1CC2(C1)C(=O)N(Cc1cc3cc(Cl)ccc3n1CCCS(C)(=O)=O)c1ccccc12` (stereo not drawn) [Co. No. 14, 1′-[[5-chloro-1-(3-methylsulfonylpropyl)indol-2-yl]methyl]-N-(2-hydroxy-1-methyl-ethyl)-2′-oxo-spiro[azetidine-3,3′-indoline]-1-carboxamide], in that order: 575 pM and 98200.
